# Experimental data from patent US6900219B2, “ABCA-1 elevating compounds” (CV Therapeutics, Inc., priority 2002, dated 2005).
# Tested on: ABCA-1 gene
# Assay: compounds tested and found to elevate cellular expression of the ABCA-1 gene (Examples 1-6; test not named)
# Type: cell-based
# Procedure: Activity testing is conducted as described in those patents and patent applications referenced above, and in the Examples below, and by methods apparent to one skilled in the art.
row,Structure (SMILES),cellular expression of the ABCA-1 gene
1,O=C(NCCc1ccccn1)c1ccc([N+](=O)[O-])cc1Cl [(2-chloro-4-nitrophenyl)-N-(2-(2-pyridyl)ethyl)carboxamide],elevate cellular expression of the ABCA-1 gene
2,O=C(NCCc1ccccn1)c1ccccc1Cl [(2-chlorophenyl)-N-(2-(2-pyridyl)ethyl)carboxamide],elevate cellular expression of the ABCA-1 gene
3,O=C(Nc1ccc(Cl)cc1)c1ccccc1Cl [(2-chlorophenyl)-N-(4-chlorophenyl)carboxamide],elevate cellular expression of the ABCA-1 gene
4,O=C(NNC(=S)Nc1ccccc1Cl)c1ccccc1Cl [(2-chlorophenyl)-N-({[(2-chlorophenyl)amino]thioxomethyl}amino)carboxamide],elevate cellular expression of the ABCA-1 gene
5,"O=C(NC1=NCCS1)c1ccccc1F [(2-fluorophenyl)-N-(1,3-thiazolin-2-yl)carboxamide]",elevate cellular expression of the ABCA-1 gene
6,Cc1ccc2cc(NC(=O)c3ccccc3F)ccc2n1 [(2-fluorophenyl)-N-(2-methyl(6-quinolyl))carboxamide],elevate cellular expression of the ABCA-1 gene
7,"O=C1CSC(NC(=O)c2ccccc2C(F)(F)F)=N1 [(2-trifluoromethylphenyl)-N-(4-oxo(1,3-thiazolin-2-yl))carboxamide]",elevate cellular expression of the ABCA-1 gene
8,CCN(CCCN(CC)c1nc2cc(C(=O)Nc3ccc(OC)cc3)ccc2o1)C(=O)c1ccoc1 [(2-{ethyl[3-(N-ethyl-3-furylcarbonylamino)propyl]amino}benzoxazol-5-yl)-N-(4-methoxyphenyl)carboxamide],elevate cellular expression of the ABCA-1 gene
9,Cc1ccc2nc(/C(C#N)=C/c3ccco3)[nH]c2c1 [(2E)-3-(2-furyl)-2-(5-methylbenzimidazol-2-yl)prop-2-enenitrile],elevate cellular expression of the ABCA-1 gene
10,O=C(/C=C/c1ccccc1)NCCN(C(=O)Nc1cccc(C(F)(F)F)c1)c1ccccc1 [(2E)-3-phenyl-N-[2-(phenyl {N-[3-(trifluoromethyl)phenyl]carbamoyl}amino)ethyl]prop-2-enamide],elevate cellular expression of the ABCA-1 gene
11,"O=C(Nc1cccc(Cl)c1)Nc1ccc2c(c1)OCCO2 [(2H,3H-benzo[e]1,4-dioxin-6-ylamino)-N-(3-chlorophenyl)lcarboxamide]",elevate cellular expression of the ABCA-1 gene
12,"O=C(Nc1ccc2c(c1)OCCO2)NC1CCCCC1 [(2H,3H-benzo[e]1,4-dioxin-6-ylamino)-N-cyclohexylcarboxamide]",elevate cellular expression of the ABCA-1 gene
13,"COc1cc(C(=O)NC2=NCCS2)cc(OC)c1OC [(3,4,5-trimethoxyphenyl)-N-(1,3-thiazolin-2-yl)carboxamide]",elevate cellular expression of the ABCA-1 gene
14,"COc1cc(C(=O)NC2=NC(=O)CS2)cc(OC)c1OC [(3,4,5-trimethoxyphenyl)-N-(4-oxo(1,3-thiazolin-2-yl))carboxamide]",elevate cellular expression of the ABCA-1 gene
15,"O=C(NC1=NCCS1)c1ccc(Cl)c(Cl)c1 [(3,4-dichlorophenyl)-N-(1,3-thiazolin-2-yl)carboxamide]",elevate cellular expression of the ABCA-1 gene
16,"O=C1CSC(NC(=O)c2ccc(Cl)c(Cl)c2)=N1 [(3,4-dichlorophenyl)-N-(4-oxo(1,3-thiazolin-2-yl))carboxamide]",elevate cellular expression of the ABCA-1 gene
17,"O=C(Nc1nc2ccccc2c(=O)o1)c1ccc(Cl)c(Cl)c1 [(3,4-dichlorophenyl)-N-(4-oxobenzo[d]1,3-oxazin-2-yl)carboxamide]",elevate cellular expression of the ABCA-1 gene
18,"O=C(NC1=NCCS1)c1ccc(F)c(F)c1 [(3,4-difluorophenyl)-N-(1,3-thiazolin-2-yl)carboxamide]",elevate cellular expression of the ABCA-1 gene
19,"O=C1CSC(NC(=O)c2ccc(F)c(F)c2)=N1 [(3,4-difluorophenyl)-N-(4-oxo(1,3-thiazolin-2-yl))carboxamide]",elevate cellular expression of the ABCA-1 gene
20,"Cc1ccc(C(=O)Nc2nc(-c3ccccc3)cs2)cc1C [(3,4-dimethylphenyl)-N-(4-phenyl(1,3-thiazol-2-yl))carboxamide]",elevate cellular expression of the ABCA-1 gene
21,"O=C(NC1=NCCS1)c1cc(C(F)(F)F)cc(C(F)(F)F)c1 [(3,5-bistrifluoromethylphenyl)-N-(1,3-thiazolin-2-yl)carboxamide]",elevate cellular expression of the ABCA-1 gene
22,"COc1cc(OC)cc(C(=O)NC2=NCCS2)c1 [(3,5-dimethoxyphenyl)-N-(1,3-thiazolin-2-yl)carboxamide]",elevate cellular expression of the ABCA-1 gene
23,"COc1cc(OC)cc(C(=O)NC2=NC(=O)CS2)c1 [(3,5-dimethoxyphenyl)-N-(4-oxo(1,3-thiazolin-2-yl))carboxamide]",elevate cellular expression of the ABCA-1 gene

row,Structure (SMILES),cellular expression of the ABCA-1 gene
1,O=C(Nc1ccc2ccccc2c1)c1sc2ccccc2c1Cl [(3-chlorobenzo[b]thiophen-2-yl)-N-(2-naphthyl)carboxamide],elevate cellular expression of the ABCA-1 gene
2,O=C(NCCc1ccccn1)c1sc2ccccc2c1Cl [(3-chlorobenzo[b]thiophen-2-yl)-N-(2-pyridyl)ethyl)carboxamide],elevate cellular expression of the ABCA-1 gene
3,Cc1cccc(NC(=O)c2sc3ccccc3c2Cl)c1 [(3-chlorobenzo[b]thiophen-2-yl)-N-(3-methylphenyl)carboxamide],elevate cellular expression of the ABCA-1 gene
4,O=C(Nc1ccc(Br)cc1)c1sc2ccccc2c1Cl [(3-chlorobenzo[b]thiophen-2-yl)-N-(4-bromophenyl)carboxamide],elevate cellular expression of the ABCA-1 gene
5,O=C(Nc1ccc(Cl)cc1)c1sc2ccccc2c1Cl [(3-chlorobenzo[b]thiophen-2-yl)-N-(4-chlorophenyl)carboxamide],elevate cellular expression of the ABCA-1 gene
6,"O=C(NC1=NCCS1)c1cccc(Cl)c1 [(3-chlorophenyl)-N-(1,3-thiazolin-2-yl)carboxamide]",elevate cellular expression of the ABCA-1 gene
7,"O=C1CSC(NC(=O)c2cccc(Cl)c2)=N1 [(3-chlorophenyl)-N-(4-oxo(1,3-thiazolin-2-yl))carboxamide]",elevate cellular expression of the ABCA-1 gene
8,"O=C(NC1=NCCS1)c1cccc(F)c1 [(3-fluorophenyl)-N-(1,3-thiazolin-2-yl)carboxamide]",elevate cellular expression of the ABCA-1 gene
9,"O=C1CSC(NC(=O)c2cccc(F)c2)=N1 [(3-fluorophenyl)-N-(4-oxo(1,3-thiazolin-2-yl))carboxamide]",elevate cellular expression of the ABCA-1 gene
10,"COc1cccc(C(=O)NC2=NCCS2)c1 [(3-methoxyphenyl)-N-(1,3-thiazolin-2-yl)carboxamide]",elevate cellular expression of the ABCA-1 gene
11,"COc1cccc(C(=O)NC2=NC(=O)CS2)c1 [(3-methoxyphenyl)-N-(4-oxo(1,3-thiazolin-2-yl))carboxamide]",elevate cellular expression of the ABCA-1 gene
12,O=C(c1ccc(Br)cc1)N(CCc1ccccc1)Cc1ccc(C(F)(F)F)cc1 [(4-bromophenyl)-N-(2-phenylethyl)-N-{[4-(trifluoromethyl)phenyl]methyl}-carboxamide],elevate cellular expression of the ABCA-1 gene
13,"O=C(NC1=NCCS1)c1ccc(Cl)cc1 [(4-chlorophenyl)-N-(1,3-thiazolin-2-yl)carboxamide]",elevate cellular expression of the ABCA-1 gene
14,O=C(Nc1ccc(Cl)cc1)c1ccc(Cl)cc1 [(4-chlorophenyl)-N-(4-chlorophenyl)carboxamide],elevate cellular expression of the ABCA-1 gene
15,"O=C1CSC(NC(=O)c2ccc(Cl)cc2)=N1 [(4-chlorophenyl)-N-(4-oxo(1,3-thiazolin-2-yl))carboxamide]",elevate cellular expression of the ABCA-1 gene
16,"O=C(Nc1nc2ccccc2c(=O)o1)c1ccc(Cl)cc1 [(4-chlorophenyl)-N-(4-oxobenzo[d]1,3-oxazin-2-yl)carboxamide]",elevate cellular expression of the ABCA-1 gene
17,"Cc1ccc(-c2cnc(NC(=O)c3ccc(Cl)cc3)s2)cc1 [(4-chlorophenyl)-N-[5-(4-methylphenyl)(1,3-thiazol-2-yl)]carboxamide]",elevate cellular expression of the ABCA-1 gene
18,Cn1cccc1CN(CCc1ccccn1)C(=O)c1ccc(Cl)cc1 [(4-chlorophenyl)-N-[(1-methylpyrrol-2-yl)methyl]-N-(2-(2-pyridyl)ethyl)carboxamide],elevate cellular expression of the ABCA-1 gene
19,"N#Cc1ccc(C(=O)NC2=NCCS2)cc1 [(4-cyanophenyl)-N-(1,3-thiazolin-2-yl)carboxamide]",elevate cellular expression of the ABCA-1 gene
20,"N#Cc1ccc(C(=O)Nc2nc(-c3ccc4ccccc4c3)cs2)cc1 [(4-cyanophenyl)-N-(4-(2-naphthyl)(1,3-thiazol-2-yl))carboxamide]",elevate cellular expression of the ABCA-1 gene
21,"N#Cc1ccc(C(=O)NC2=NC(=O)CS2)cc1 [(4-cyanophenyl)-N-(4-oxo(1,3-thiazolin-2-yl))carboxamide]",elevate cellular expression of the ABCA-1 gene
22,"N#Cc1ccc(C(=O)Nc2nc(-c3ccccc3)cs2)cc1 [(4-cyanophenyl)-N-(4-phenyl(1,3-thiazol-2-yl))carboxamide]",elevate cellular expression of the ABCA-1 gene
